Counter-ions that a name gives are not always drawn. Like-named read-outs stand apart in the source and are kept apart here.
Experiments:
[1] = Method: Example 10: Stability of the forms (solvent mediated transformation studies)
To assess the stability of the anhydrous Forms A and B, solvent mediated transformation experiments were performed. […] This was tested by viewing a few crystals of Form A/Form B under the microscope by placing them on a glass plate with a cover-slip, adding a drop of water and spreading around the cover. […] Table 3: Results of the solvent mediated transformation studies

[2] = test system: platelet aggregation; details: 75 mg of base equivalent versus 325 mg of acetyl salicylic acid; cited from earlier work
[3] = in vivo; cited from earlier work
[4] = room temperature, closed glass container, after 8 to 10 month; PXRD, DSC, Raman
Source text: Polymorph Form B of clopidogrel hydrobromide obtained in example 2a) was stored at room temperature in a closed glass container.

[5] = 100 mg in 5 ml, water bath at 80-100°C
Method: Method example 1: 100 mg of clopidogrel hydrobromide HY-1 obtained according to example Ba) was dissolved in 5 ml of the solvent on a water bath at 80-100°C with constant shaking and the solvent was allowed to evaporate slowly at room temperature for 24 hours at ambient pressure.

[6] = benzene/ acetonitrile 1:1, method example b (dissolved at 70°C, evaporation 24 hours at room temperature)
Method: Method example b: 100 mg of clopidogrel hydrobromide HY-1 were dissolved in 3-5 ml of the first solvent at a temperature of 70°C. 8-10 ml of the second solvent were added to the solution over 3-5 minutes to reduce the polarity until it becomes a saturated solution. The solvent mixture was allowed to evaporate for 24 hours at room temperature at ambient pressure for 24 hours. The precipitate was filtered off.

**Q.** Which Resulting form ([1]; solvent toluene, 1 day/10-30°C) does the source give for `COC(=O)[C@H](c1ccccc1Cl)N1CCc2sccc2C1` [A:B (1:1), clopidogrel hydrobromide] here?
**A.** Its Resulting form is “HY-2”.

**Q.** And the Resulting form ([1]; solvent water, 1 day/20°C)?
**A.** The Resulting form was “HY-1”.

**Q.** What about the “polymorph produced on stirring” value ([1]; toluene (200 mg in 3-5 ml), 10-30°C, 1-4 days, formed after 1 day, confirmed after 4 days and 2-4 weeks by PXRD, DSC, TGA, Raman) of the same molecule?
**A.** Its value is “HY-2”.

**Q.** Which results are given for `COC(=O)[C@H](c1ccccc1Cl)N1CCc2sccc2C1` [Clopidogrel, (αS)-α-(2-chlorophenyl)-6,7-dihydrothieno[3,2-c]-pyridine-5(4H)-acetic acid methyl ester]?
**A.** effectiveness in blocking platelet aggregation versus acetyl salicylic acid [2]: more effective; gastrointestinal bleeding versus acetyl salicylic acid [3]: much less

**Q.** With `COC(=O)[C@H](c1ccccc1Cl)N1CCc2sccc2C1` [Form A, clopidogrel hydrobromide] as the molecule, how does the “time span within which needle like crystals corresponding to HY-1 were formed” value ([1]; a few crystals on a glass plate under the microscope, a drop of water added) read?
**A.** Its value is ≤ 30 min.

**Q.** And the “time span within which the form is converted to the hydrate, i.e. HY-1” value ([1]; apolar solvents containing minimal amounts of water)?
**A.** The value was ≤ 1 h.

**Q.** What about the Resulting form ([1]; solvent water, 30 min/25°C) of the same molecule?
**A.** Its Resulting form is “HY-1”.

**Q.** For `COC(=O)[C@H](c1ccccc1Cl)N1CCc2sccc2C1` [Form B, clopidogrel hydrobromide], which “polymorphic form identified after storage” value [4] is on record?
**A.** The value was “Form E”.

**Q.** With `COC(=O)[C@H](c1ccccc1Cl)N1CCc2sccc2C1` [Form HY-1, clopidogrel hydrobromide] as the molecule, how does the solubility ([5]; solvent acetic acid) read?
**A.** Its solubility is “highly soluble”.

**Q.** And the solubility ([5]; solvent acetone)?
**A.** The solubility was “soluble”.

**Q.** What about the solubility ([5]; solvent acetonitrile) of the same molecule?
**A.** The solubility was “soluble”.

**Q.** And the solubility ([5]; solvent benzene)?
**A.** The solubility was “sparingly soluble”.

**Q.** What about the solubility ([5]; solvent chloroform) of the same molecule?
**A.** The solubility was “highly soluble”.

**Q.** What about the solubility ([5]; solvent cyclohexane) of the same molecule?
**A.** Its solubility is “insoluble”.

**Q.** What about the solubility ([5]; solvent dichloromethane) of the same molecule?
**A.** Its solubility is “highly soluble”.

**Q.** And the solubility ([5]; solvent diethylether)?
**A.** The solubility was “insoluble”.

**Q.** And the solubility ([5]; solvent dimethylformamide)?
**A.** The solubility was “soluble”.

**Q.** What about the solubility ([5]; solvent dioxane) of the same molecule?
**A.** The solubility was “soluble in hot”.

**Q.** What about the solubility ([5]; solvent ethanol) of the same molecule?
**A.** The solubility was “highly soluble”.

**Q.** What about the solubility ([5]; solvent ethylacetate) of the same molecule?
**A.** The solubility was “soluble in hot”.

**Q.** What about the solubility ([5]; solvent i-propanol) of the same molecule?
**A.** Its solubility is “highly soluble”.

**Q.** What about the solubility ([5]; solvent methanol) of the same molecule?
**A.** The solubility was “highly soluble”.

**Q.** What about the solubility ([5]; solvent n-butanol) of the same molecule?
**A.** Its solubility is “highly soluble”.

**Q.** And the solubility ([5]; solvent n-decane)?
**A.** Its solubility is “insoluble”.

**Q.** And the solubility ([5]; solvent n-hexane)?
**A.** The solubility was “insoluble”.

**Q.** What about the solubility ([5]; solvent n-pentanol) of the same molecule?
**A.** Its solubility is “soluble”.

**Q.** What about the solubility ([5]; solvent n-propanol) of the same molecule?
**A.** The solubility was “highly soluble”.

**Q.** What about the solubility ([5]; solvent nitromethane) of the same molecule?
**A.** The solubility was “soluble”.

**Q.** What about the solubility ([5]; solvent petrolether) of the same molecule?
**A.** The solubility was “insoluble”.

**Q.** And the solubility ([5]; solvent tetrachloromethane)?
**A.** The solubility was “insoluble”.

**Q.** What about the solubility ([5]; solvent tetrahydrofurane) of the same molecule?
**A.** The solubility was “soluble in hot”.

**Q.** And the solubility ([5]; solvent toluene)?
**A.** Its solubility is “soluble in hot”.

**Q.** And the solubility ([5]; solvent water)?
**A.** The solubility was “sparingly soluble in hot”.

**Q.** What about the solubility ([5]; solvent xylene) of the same molecule?
**A.** The solubility was “soluble in hot”.

**Q.** What about the “Remarks (behaviour in the solvent mixture)” value [6] of the same molecule?
**A.** Its value is “Decomposition”.

— EP1674468A1, “Polymorphs of clopidogrel hydrobromide” (Ratiopharm GmbH, priority 2004, dated 2006)
